{
  "source": "patent US20260256922A1",
  "about": "“PRODRUGS USEFUL FOR REDUCING ANTHRACYCLINE CARDIOTOXICITY” (WAKE FOREST UNIVERSITY HEALTH SCIENCES, priority 2022, published 2026)",
  "key": {"Nrf2": {"system": "Nrf2", "test": "Nrf2 and HO-1 immunoblots in H9C2 cells", "assay_type": "cell-based, rat", "details": "H9C2, relative to DMSO vehicle", "source_text": "The bar graphs below represent the mean±SEM. Results were statistically different between c1 and DOX in both cases (p=0.002 and p=0.019), and more marginally so between c1 and DMSO (p=0.011 and p.=0.025), for Nrf2 and HO-1, respectively."}, "[1]": {"system": "4T1 mouse breast cancer cells", "test": "LDH release cytotoxicity assay in 4T1 cells", "assay_type": "cell-based", "details": "10 or 20 μM, 24 or 48 h, other than the lowest dose and shortest time", "source_text": "FIG. 8. Cytotoxicity of DOX and prodrugs in 4T1 mouse breast cancer cells.\nDOX is a known cytotoxic agent used against 4T1 triple-negative breast cancer cells grown in culture or injected orthotopically into mouse mammary fat pads to initiate the development of tumors.^52,53 As an initial test to see if c1 could retain the cytotoxic properties of DOX toward tumor-forming 4T1 cells, we conducted LDH assays to assess cytotoxicity of DOX, c1 and c2 treatments."}},
  "note": "Entries after “also recorded” stand apart in the source; their conditions may differ.",
  "data": [
    {"smiles": "COc1cccc2c1C(=O)c1c(O)c3c(c(O)c1C2=O)C[C@@](O)(C(=O)CO)C[C@@H]3O[C@H]1C[C@H](NC(=S)OCc2ccc(B3OC(C)(C)C(C)(C)O3)cc2)[C@H](O)[C@H](C)O1", "note": "[c1]", "values": [
      {"measurement": "HO-1 expression (immunoblot)", "setting": "Nrf2", "value": "largely preserved Nrf2 activation and HO-1 expression; also recorded: only moderately suppressive"},
      {"measurement": "Nrf2 activation (immunoblot)", "setting": "Nrf2", "value": "largely preserved Nrf2 activation and HO-1 expression; also recorded: only moderately suppressive"},
      {"measurement": "cytotoxicity (LDH release)", "setting": "[1]", "value": "comparable, sometimes less and sometimes more, toxicity relative to DOX"}
    ]}
  ]
}
